Data reported in ChEMBL document CHEMBL1155520, “Novel 8a-aza-8a-homoerythromycin--4''-(3-substituted-amino)propionates with broad spectrum antibacterial activity” (2010).
Converted amounts (≈) assume the structure as drawn.

What was measured:
Assay type in all cases: functional
Streptococcus pneumoniae [1] = assay: Antimicrobial activity against macrolide-sensitive Streptococcus pneumoniae SPO 30
Streptococcus pneumoniae [2] = assay: Antimicrobial activity against macrolide-resistant Streptococcus pneumoniae Ci137
Streptococcus pyogenes [3] = assay: Antimicrobial activity against macrolide-sensitive Streptococcus pyogenes 3665
Staphylococcus aureus [4] = assay: Antimicrobial activity against macrolide-sensitive Staphylococcus aureus ATCC 13709
Haemophilus influenzae = assay: Antimicrobial activity against Haemophilus influenzae ATCC 49247
Streptococcus pneumoniae [5] = assay: Antimicrobial activity against inducible macrolide and constitutive lincosamide, streptogramin-resistant Streptococcus pneumoniae 4636
Streptococcus pyogenes [6] = assay: Antimicrobial activity against inducible macrolide, lincosamide, streptogramin-resistant Streptococcus pyogenes Finland 11
Streptococcus pneumoniae [7] = assay: Antimicrobial activity against inducible macrolide, lincosamide, streptogramin-resistant Streptococcus pneumoniae 134 GRM
Streptococcus pneumoniae [8] = assay: Antimicrobial activity against inducible macrolide and constitutive lincosamide, streptogramin-resistant Streptococcus pneumoniae 58 Spain
Streptococcus pyogenes [9] = assay: Antimicrobial activity against inducible macrolide-resistant Streptococcus pyogenes Finland 3
Staphylococcus aureus [10] = assay: Antimicrobial activity against macrolide-sensitive Staphylococcus aureus PK1
Streptococcus pyogenes [11] = assay: Antimicrobial activity against inducible macrolide and constitutive lincosamide, streptogramin-resistant Streptococcus pyogenes 166 GR-micro

Structure (SMILES)	MIC (Streptococcus pneumoniae [1])	MIC (Streptococcus pneumoniae [2])	MIC (Streptococcus pyogenes [3])	MIC (Staphylococcus aureus [4])	MIC (Haemophilus influenzae)	MIC (Streptococcus pneumoniae [5])	MIC (Streptococcus pyogenes [6])	MIC (Streptococcus pneumoniae [7])	MIC (Streptococcus pneumoniae [8])	MIC (Streptococcus pyogenes [9])	MIC (Staphylococcus aureus [10])	MIC (Streptococcus pyogenes [11])
CC[C@H]1OC(=O)[C@H](C)[C@@H](O[C@H]2C[C@@](C)(OC)[C@@H](OC(=O)CCN3CCN(c4ccc([N+](=O)[O-])cc4)CC3)[C@H](C)O2)[C@H](C)[C@@H](O[C@@H]2O[C@H](C)C[C@H](N(C)C)[C@H]2O)[C@](C)(OC)C[C@@H](C)NC(=O)[C@H](C)[C@@H](O)[C@]1(C)O	< 0.13 µg/mL	1 µg/mL (≈ 0.976 µM)	< 0.13 µg/mL	2 µg/mL (≈ 1.95 µM)	2 µg/mL (≈ 1.95 µM)	8 µg/mL (≈ 7.81 µM)	8 µg/mL (≈ 7.81 µM)	–	–	–	–	–
CC[C@H]1OC(=O)[C@H](C)[C@@H](O[C@H]2C[C@@](C)(OC)[C@@H](OC(=O)CCNCC(=O)Nc3cnc4ccccc4c3)[C@H](C)O2)[C@H](C)[C@@H](O[C@@H]2O[C@H](C)C[C@H](N(C)C)[C@H]2O)[C@](C)(OC)C[C@@H](C)NC(=O)[C@H](C)[C@@H](O)[C@]1(C)O	< 0.13 µg/mL	2 µg/mL (≈ 1.96 µM)	< 0.13 µg/mL	2 µg/mL (≈ 1.96 µM)	> 32 µg/mL	> 32 µg/mL	16 µg/mL (≈ 15.7 µM)	–	–	–	–	–
CC[C@H]1OC(=O)[C@H](C)[C@@H](O[C@H]2C[C@@](C)(OC)[C@@H](OC(=O)CCNCC(=O)Nc3cccc4ncccc34)[C@H](C)O2)[C@H](C)[C@@H](O[C@@H]2O[C@H](C)C[C@H](N(C)C)[C@H]2O)[C@](C)(OC)C[C@@H](C)NC(=O)[C@H](C)[C@@H](O)[C@]1(C)O	< 0.13 µg/mL	16 µg/mL (≈ 15.7 µM)	0.25 µg/mL (≈ 0.246 µM)	8 µg/mL (≈ 7.86 µM)	> 32 µg/mL	> 32 µg/mL	32 µg/mL (≈ 31.4 µM)	–	–	–	–	–
CC[C@H]1OC(=O)[C@H](C)[C@@H](O[C@H]2C[C@@](C)(OC)[C@@H](OC(=O)CCNCC(=O)Nc3ccc4cccnc4c3)[C@H](C)O2)[C@H](C)[C@@H](O[C@@H]2O[C@H](C)C[C@H](N(C)C)[C@H]2O)[C@](C)(OC)C[C@@H](C)NC(=O)[C@H](C)[C@@H](O)[C@]1(C)O	< 0.13 µg/mL	4 µg/mL (≈ 3.93 µM)	< 0.13 µg/mL	2 µg/mL (≈ 1.96 µM)	> 32 µg/mL	> 32 µg/mL	16 µg/mL (≈ 15.7 µM)	–	–	–	–	–
CC[C@H]1OC(=O)[C@H](C)[C@@H](O[C@H]2C[C@@](C)(OC)[C@@H](OC(=O)CCNCCNc3cncc([N+](=O)[O-])c3)[C@H](C)O2)[C@H](C)[C@@H](O[C@@H]2O[C@H](C)C[C@H](N(C)C)[C@H]2O)[C@](C)(OC)C[C@@H](C)NC(=O)[C@H](C)[C@@H](O)[C@]1(C)O	< 0.13 µg/mL	0.5 µg/mL (≈ 0.5 µM)	< 0.13 µg/mL	0.25 µg/mL (≈ 0.25 µM)	4 µg/mL (≈ 4 µM)	4 µg/mL (≈ 4 µM)	0.25 µg/mL (≈ 0.25 µM)	–	–	–	–	–
CC[C@H]1OC(=O)[C@H](C)[C@@H](O[C@H]2C[C@@](C)(OC)[C@@H](OC(=O)CCN3CCN(c4cc5c(cc4F)c(=O)ccn5C4CC4)CC3)[C@H](C)O2)[C@H](C)[C@@H](O[C@@H]2O[C@H](C)C[C@H](N(C)C)[C@H]2O)[C@](C)(O)C[C@@H](C)NC(=O)[C@H](C)[C@@H](O)[C@]1(C)O	–	< 0.13 µg/mL	–	1 µg/mL (≈ 0.917 µM)	8 µg/mL (≈ 7.34 µM)	–	0.5 µg/mL (≈ 0.459 µM)	> 32 µg/mL	> 32 µg/mL	–	–	–
CC[C@H]1OC(=O)[C@H](C)[C@@H](O[C@H]2C[C@@](C)(OC)[C@@H](OC(=O)CCN3CCN(c4cc5c(cc4F)c(=O)ccn5C4CC4)CC3)[C@H](C)O2)[C@H](C)[C@@H](O[C@@H]2O[C@H](C)C[C@H](N(C)C)[C@H]2O)[C@](C)(OC)C[C@@H](C)NC(=O)[C@H](C)[C@@H](O)[C@]1(C)O	–	< 0.13 µg/mL	–	1 µg/mL (≈ 0.905 µM)	8 µg/mL (≈ 7.24 µM)	–	1 µg/mL (≈ 0.905 µM)	> 64 µg/mL	64 µg/mL (≈ 58 µM)	< 0.13 µg/mL	8 µg/mL (≈ 7.24 µM)	> 64 µg/mL
CC[C@H]1OC(=O)[C@H](C)[C@@H](O[C@H]2C[C@@](C)(OC)[C@@H](OC(=O)CCN3CCN(c4cc5c(cc4F)c(=O)c(C(=O)O)cn5C4CC4)CC3)[C@H](C)O2)[C@H](C)[C@@H](O[C@@H]2O[C@H](C)C[C@H](N(C)C)[C@H]2O)[C@](C)(OC)C[C@@H](C)NC(=O)[C@H](C)[C@@H](O)[C@]1(C)O	–	< 0.13 µg/mL	–	1 µg/mL (≈ 0.871 µM)	1 µg/mL (≈ 0.871 µM)	–	0.5 µg/mL (≈ 0.435 µM)	8 µg/mL (≈ 6.97 µM)	16 µg/mL (≈ 13.9 µM)	0.5 µg/mL (≈ 0.435 µM)	2 µg/mL (≈ 1.74 µM)	8 µg/mL (≈ 6.97 µM)
CC[C@H]1OC(=O)[C@H](C)[C@@H](O[C@H]2C[C@@](C)(OC)[C@@H](OC(=O)CCNCCNc3cc4c(cc3F)c(=O)c(C(=O)O)cn4C3CC3)[C@H](C)O2)[C@H](C)[C@@H](O[C@@H]2O[C@H](C)C[C@H](N(C)C)[C@H]2O)[C@](C)(O)C[C@@H](C)NC(=O)[C@H](C)[C@@H](O)[C@]1(C)O	–	< 0.13 µg/mL	–	0.25 µg/mL (≈ 0.226 µM)	–	–	< 0.13 µg/mL	< 0.13 µg/mL	< 0.13 µg/mL	0.25 µg/mL (≈ 0.226 µM)	0.5 µg/mL (≈ 0.451 µM)	0.25 µg/mL (≈ 0.226 µM)
CC[C@H]1OC(=O)[C@H](C)[C@@H](O[C@H]2C[C@@](C)(OC)[C@@H](OC(=O)CCNCCNc3cc4c(cc3F)c(=O)c(C(=O)O)cn4C3CC3)[C@H](C)O2)[C@H](C)[C@@H](O[C@@H]2O[C@H](C)C[C@H](N(C)C)[C@H]2O)[C@](C)(OC)C[C@@H](C)NC(=O)[C@H](C)[C@@H](O)[C@]1(C)O	–	< 0.13 µg/mL	–	< 0.13 µg/mL	4 µg/mL (≈ 3.56 µM)	–	< 0.13 µg/mL	< 0.13 µg/mL	< 0.13 µg/mL	0.5 µg/mL (≈ 0.445 µM)	< 0.13 µg/mL	0.25 µg/mL (≈ 0.223 µM)
NCCNc1cc2c(cc1F)c(=O)c(C(=O)O)cn2C1CC1	–	> 64 µg/mL	–	> 64 µg/mL	> 64 µg/mL	–	> 64 µg/mL	> 64 µg/mL	> 64 µg/mL	> 64 µg/mL	> 64 µg/mL	> 64 µg/mL
CC[C@H]1OC(=O)[C@H](C)[C@@H](O[C@H]2C[C@@](C)(OC)[C@@H](O)[C@H](C)O2)[C@H](C)[C@@H](O[C@@H]2O[C@H](C)C[C@H](N(C)C)[C@H]2O)[C@](C)(O)C[C@@H](C)NC(=O)[C@H](C)[C@@H](O)[C@]1(C)O	< 0.13 µg/mL	32 µg/mL (≈ 42.7 µM)	< 0.13 µg/mL	1 µg/mL (≈ 1.34 µM)	2 µg/mL (≈ 2.67 µM)	> 64 µg/mL	16 µg/mL (≈ 21.4 µM)	> 64 µg/mL	> 64 µg/mL	32 µg/mL (≈ 42.7 µM)	> 64 µg/mL	> 64 µg/mL
CC[C@H]1OC(=O)[C@H](C)[C@@H](O[C@H]2C[C@@](C)(OC)[C@@H](O)[C@H](C)O2)[C@H](C)[C@@H](O[C@@H]2O[C@H](C)C[C@H](N(C)C)[C@H]2O)[C@](C)(OC)C[C@@H](C)NC(=O)[C@H](C)[C@@H](O)[C@]1(C)O	< 0.13 µg/mL	16 µg/mL (≈ 21 µM)	< 0.13 µg/mL	0.5 µg/mL (≈ 0.655 µM)	4 µg/mL (≈ 5.24 µM)	> 64 µg/mL	8 µg/mL (≈ 10.5 µM)	> 64 µg/mL	> 64 µg/mL	32 µg/mL (≈ 41.9 µM)	> 64 µg/mL	> 64 µg/mL
CC[C@H]1OC(=O)[C@H](C)[C@@H](O[C@H]2C[C@@](C)(OC)[C@@H](O)[C@H](C)O2)[C@H](C)[C@@H](O[C@@H]2O[C@H](C)C[C@H](N(C)C)[C@H]2O)[C@](C)(O)C[C@@H](C)CN(C)[C@H](C)[C@@H](O)[C@]1(C)O [AZITHROMYCIN]	< 0.13 µg/mL	8 µg/mL (≈ 10.7 µM)	< 0.13 µg/mL	0.5 µg/mL (≈ 0.668 µM)	1 µg/mL (≈ 1.34 µM)	> 64 µg/mL	16 µg/mL (≈ 21.4 µM)	> 64 µg/mL	> 64 µg/mL	8 µg/mL (≈ 10.7 µM)	> 64 µg/mL	> 64 µg/mL
CC[C@H]1OC(=O)[C@H](C)C(=O)[C@H](C)[C@@H](O[C@@H]2O[C@H](C)C[C@H](N(C)C)[C@H]2O)[C@](C)(OC)C[C@@H](C)C(=O)[C@H](C)[C@H]2N(CCCCn3cnc(-c4cccnc4)c3)C(=O)O[C@]12C [TELITHROMYCIN]	–	0.25 µg/mL (≈ 0.308 µM)	–	< 0.06 µg/mL	2 µg/mL (≈ 2.46 µM)	–	0.06 µg/mL (≈ 0.0739 µM)	0.25 µg/mL (≈ 0.308 µM)	0.25 µg/mL (≈ 0.308 µM)	0.5 µg/mL (≈ 0.616 µM)	0.125 µg/mL (≈ 0.154 µM)	16 µg/mL (≈ 19.7 µM)
